One assay has as its system iNOS. Kind of assay: Survey of iNOS inhibition, 2 hr LPS pre-stimulation (nitrite by Greiss reagent). The format is cell-based, murine. The following applies: RAW 264.7 cells, LPS/ATP stimulation for two hours, then compound added. As to the method: We chose the well characterized LPS stimulation of the murine macrophage cell line RAW 264.7, that produces substantial quantities of NO, to screen inositol polyphosphate compounds in vitro (FIGS. 8-12 and Table 1). This assay system offers a number of opportunities to characterize drug action as pre-transcriptional, post transcriptional, translational or post translational.
Nitrite (NO2^−) accumulation in cell-free supernatant, used as an indicator of NO production, was measured using the modified Greiss reagent (Sigma G4410, St Louis, Mo.). This method was applied as described elsewhere (Martinez, J. et al., “Regulation of prostaglandin E2 production by the superoxide radical and nitric oxide in mouse peritoneal macrophages,” Free Radical Res 32:303-311 (2000)). Briefly, RAW264.7 cells (ATCC, #TIB-71) were maintained in standard tissue culture flasks and with DMEM+10% heat inactivated fetal bovine serum(HI-FBS) (Fetal-bovine serum, Heat-inactivated, Sercare Life Sciences, Oceanside, Calif.). Experiments were initiated by seeding logarithmic cells at […] per well in a 96-well plate in phenol-red free RPMI 1640 (Sigma #R8755)+10% HI-FBS at least four hours before the initiation of the experiment. Cells were exposed to treatment compounds for a minimum of 30 minutes in RPMI-1640 supplemented with 10% fetal calf serum. The compound treatment was removed and inflammatory compounds dissolved in RPMI-1640 supplemented with 10% FBS were applied to the cells. Stimulated cells and appropriate controls were incubated for 18-24 hours before sampling 50 μl of the cell-free supernatant from each well. This sample of supernatant was combined with 25 μl of a nitrate reductase cocktail (0.1 units/ml nitrate reductase enzyme, 5 μM FAD, 30 μM NADPH) and incubated for 30 minutes[…]. To this mixture, 25 μl of LDH cocktail (100 units/ml rabbit muscle lactate dehydrogenase in 0.3 mM sodium pyruvate) was added and the total mixture was incubated another 5-10 min at […]. Greiss reagent was added in 100 μl amounts to each 100 μl experimental sample. Color development proceeded for a minimum of 10 minutes while protected from light. Nitrite levels were compared to a sodium nitrite standard curve freshly prepared in the same medium used for the growth and incubation of the cells and treated with the same enzyme treatments. Color development was recorded by using a Packard Spectracount Plate reader at 540 nm wave length.
It is important to identify the conditions under which the compounds exert their greatest desired effect with the minimal adverse effects. Understanding this relationship is important as signaling molecule mimetics may require special conditions of concentration and duration to generate the desired therapeutic effect. To ascertain whether effects could be observed post-exposure to stimulus, cells were exposed to the LPS/ATP stimulation for two hours at […] after which compound was added.

Another assay relates to human CF nasal epithelia. As to the kind of experiment: Blue Dextran volume transport assay. The format is cell-based. The following applies: CF nasal epithelia monolayers, apical application, 18 hours. An excerpt:
In normal human airway epithelia, Na+ and Cl− currents (CFTR and Ca2+-activated Cl− currents) contribute to airway surface liquid (ASL) fluid volume regulation depending on signaling equilibria. In contrast, in human CF airway epithelia, Na+ currents through ENaC dominate basal ASL volume regulation accompanied by a relatively minor contribution through Ca2+-activated Cl− currents. The combination of enhanced ENaC currents and transient Ca2+-activated Cl− currents in CF result in an inadequate hydration of the ASL and reduction of mucociliary clearance. […] The resulting reduction in the ability of these monolayers to concentrate BD was taken as a functional indicator of the test compound's involvement in the inhibition of ENaC.
All procedures were performed aseptically. The Blue Dextran (BD) stock solution was prepared with HEPES modified Ringer's buffer (HMRB) (2 mg BD/ml buffer). The compounds tested were solubilized in HMRB containing ˜1 μM BD. Final concentration of vehicle is 0.1% unless otherwise indicated (1:1, DMSO+DMSO containing 5% (w/v) pluronic-F127). The composition of HMRB (pH 7.3, 6.7 when equilibrated with 95%air/5%CO2) is as follows (in mM): 135 NaCl, 1.2 CaCl2, 1.2 MgCl2, 2.4 K2HPO4, 0.6 KH2PO4, 10 HEPES, 10 glucose (˜285 mOsm.). 200 μl of the BD solution was applied to the apical surface and placed in a highly humidified incubator (Forma model 3956 set on “high” humidity) for 18 hours. Basolateral buffer consisted of BEGM (˜300 mOsm.). After 18 hours, 60 μl of the remaining apical buffer was sampled and transferred to a 0.7 ml micro-centrifuge tube for storage until analysis. A standard concentration curve was obtained by determining the optical densities, at 660 nm, of a serial dilution of 10 μM Blue Dextran in HMRB in a 96-well plate using a Packard Spectracount. The [BD] of the samples, which were read on the same plate, was determined by extrapolation from the BD standard curve using Packard I-Smart software. The increase in [BD] from the starting value of 1 μM was taken to be an indication of the magnitude of volume absorption occurring across the monolayer. The rate of absorption was calculated by dividing the change in volume by the duration of the experiment. This value was normalized to a surface area of 1 cm^2, to give μl·cm2 −1·hr −1. All experiments, unless otherwise indicated, were conducted over a period of 18 hours.

A further assay has as its system CFHNE cell monolayers. Kind of assay: Cystic fibrosis human nasal epithelial cell Ussing chamber assay. The format is cell-based. The following applies: 2 hour pretreatment, measured 22 hours later. The text has this: CF Human Nasal Epithelial (CFHNE) Cell Isolation and Proliferation: Surgically removed nasal polyps were obtained from volunteers in collaboration with Dr. Bonnie Ramsey at Children's Hospital, Seattle and Dr. Ludwig Allegra at the Northwest Nasal Sinus Center, and transported on ice in a sterile container containing a 1:1 mixture of Dulbecco's modification of minimum essential medium Eagle and Ham's F-12 nutrient medium (DMEM/F-12)(Irvine Scientific, Santa Ana, Calif.) supplemented with 100 U/ml penicillin, 0.1 mg/ml streptomycin, 10 mM HEPES, and 2 mM L-glutamine. The tissue samples were aseptically removed from the transport medium and washed (repeated 5X) by suspending in 40 ml of Joklik's modification of minimum essential medium Eagle (JMEM) at 4° C., and centrifuging at 500 RPM. The supernatant was aspirated and discarded. The tissue was then transferred to JMEM containing 200 U/ml penicillin, 0.2 mg/ml streptomycin, 0.1 mg/ml gentamicin sulfate (Clonetics, San Diego, Calif.), and 0.1 μg/ml amphotericin-B (Clonetics), and 0.1% Protease (Sigma), washed an additional 2×, suspended in 15 ml in a 10 cm tissue culture dish, and incubated at 4° C. for 24 hours. The tissue samples were then gently triturated, the connective tissue aseptically removed, and the remaining cell suspension centrifuged at 1000 RPM for 5 min. […] The cells were then counted using a hemocytometer. […]

Consider `CCC(=O)OCOP(=O)(OCOC(=O)CC)OC1C2OC3(CC4CCC3(C)C4(C)C)OC2C(OP(=O)(OCOC(=O)CC)OCOC(=O)CC)C(OP(=O)(OCOC(=O)CC)OCOC(=O)CC)C1OP(=O)(OCOC(=O)CC)OCOC(=O)CC` (centres unmarked) [INO-4984, 2,3-camphanylidene-myo-inositol 1,4,5,6-tetrakisphosphate octakis (propionoxymethyl) ester], for which the half-maximal inhibitory concentration (IC50) with iNOS (experiment 1 of three) was 18 µM; with iNOS (experiment 2 of three), 3.13 µM; with iNOS (experiment 3 of three) it was 12.5 µM. Moreover, the “inhibition of fluid absorption” value with human CF nasal epithelia is given as “dose dependent inhibition of fluid absorption”.
The matching figures for `CCC(=O)OCOP(=O)(OCOC(=O)CC)OC1C2OC3(CC4CCC3(C)C4(C)C)OC2C(OP(=O)(OCOC(=O)CC)OCOC(=O)CC)C(OP(=O)(OCOC(=O)CC)OCOC(=O)CC)C1OP(=O)(OCOC(=O)CC)OCOC(=O)CC` (centres unmarked) [INO-4996, 1,2-camphanylidene-myo-inositol 3,4,5,6-tetrakisphosphate octakis (propionoxymethyl) ester]: 6.25 µM, 3.13 µM, 6.25 µM and “dose dependent inhibition of fluid absorption”.
Regarding `CCCC(=O)OC1C(OCCCc2ccccc2)C(OP(=O)(OCOC(=O)CC)OCOC(=O)CC)C(OP(=O)(OCOC(=O)CC)OCOC(=O)CC)C(OP(=O)(OCOC(=O)CC)OCOC(=O)CC)C1OP(=O)(OCOC(=O)CC)OCOC(=O)CC` (centres unmarked) [INO-4997, 2-O-butyryl-1-O-(3-phenylpropyl)-myo-inositol 3,4,5,6-tetrakisphosphate octakis (propionoxymethyl) ester], the IC50 in the assay on iNOS (experiment 1 of three) was 12.5 µM; in the assay with iNOS (experiment 2 of three), 12.5 µM; with iNOS (experiment 3 of three), 9 µM. Besides, the “inhibition of fluid absorption” value in the assay with human CF nasal epithelia was “dose dependent inhibition of fluid absorption”. In addition, in the assay with CFHNE cell monolayers, the “effect on basal Isc” value is “prolonged effect”.
In the case of `N=C(N)NC(=O)c1nc(Cl)c(N)nc1N` [amiloride, reference compound], the “inhibition of fluid absorption” value with human CF nasal epithelia is reported as “inhibited fluid absorption measured by the Blue Dextran assay in a dose dependent fashion”.

A word on the IC50: it is the point on the concentration scale where inhibition reaches its midpoint. Read a high IC50 as lower potency.

The values are drawn from patent US20070129336A1, “Camphanylidene and phenylalkyl inositol polyphosphate compounds, compositions, and methods of their use” (Inologic, Inc., priority 2003, published 2007).
